The test system of test [1] is human platelet-rich plasma (PRP). The test is described as follows: PRP assay: inhibition of ADP-mediated platelet aggregation in vitro. In kind it is cell-based. Particulars: Homo sapiens, Platelet, ADP-induced aggregation. The protocol:
The effect of testing the compound according to the invention on ADP-induced human platelet aggregation was assessed in a 96-well microtiter assay (see generally the procedures in Jantzen, H. M. et al. (1999) Thromb. Hemost. 81:111-117) or standard cuvette light transmittance aggregometry using either human platelet-rich plasma (PRP) or human washed platelets.
For preparation of human platelet-rich plasma for aggregation assays, human venous blood was collected from healthy, drug-free volunteers into 0.38% sodium citrate (0.013 M, pH 7.0 final). Platelet-rich plasma (PRP) is prepared by centrifugation of whole blood at 160×g for 20 minutes at room temperature. The PRP layer is removed, transferred to a new tube, and the platelet count is adjusted, if necessary, to achieve a platelet concentration of ˜3×10^8 platelets/ml using platelet-poor plasma (PPP). PPP is prepared by centrifugation of the remaining blood sample (after removal of PRP) for 20 minutes at 800×g. This preparation of PRP can subsequently be used for aggregation assays in either a 96-well plate or standard cuvette aggregometry.
For cuvette light transmittance aggregation assays, serial dilutions (1:3) of test compounds were prepared in 100% DMSO in a 96 well V-bottom plate (final DMSO concentration in the cuvette was 0.6%). The test compound (3 μl of serial dilutions in DMSO) was preincubated with PRP for 30-45 seconds prior to initiation of aggregation reactions, which were performed in a ChronoLog aggregometer by addition of agonist (5 or 10 μM ADP) to 490 μL of PRP at 37° C. In some cases, light transmittance aggregometry was performed using 490 μL of washed platelets (prepared as described above) at 37° C., and aggregation was initiated by addition of 5 μM ADP and 0.5 mg/ml human fibrinogen (American Diagnostics, Inc., Greenwich, Conn.). The aggregation reaction is recorded for ˜5 min, and maximum extent of aggregation is determined by the difference in extent of aggregation at baseline, compared to the maximum aggregation that occurs during the five minute period of the assay. Inhibition of aggregation was calculated as the maximum aggregation observed in the presence of inhibitor, compared to that in the absence of inhibitor. IC50s were derived by non-linear regression analysis using the Prism software (GraphPad, San Diego, Calif.).
Inhibition of ADP-dependent aggregation was also determined in 96-well flat-bottom microtiter plates using a microtiter plate shaker and plate reader similar to the procedure described by Frantantoni et al., Am. J. Clin. Pathol. 94, 613 (1990). All steps are performed at room temperature. For 96-well plate aggregation using platelet-rich plasma (PRP), the total reaction volume of 0.2 ml/well includes 180 μl of PRP (˜3×10^8 platelets/ml, see above), 6 μl of either serial dilution of test compounds in 20% DMSO or buffer (for control wells), and 10 μl of 20×ADP agonist solution (100 μM). The OD of the samples is then determined at 450 nm using a microtiter plate reader (Softmax, Molecular Devices, Menlo Park, Calif.) resulting in the 0 minute reading. The plates are then agitated for 5 min on a microtiter plate shaker and the 5 minute reading is obtained in the plate reader. Aggregation is calculated from the decrease of OD at 450 nm at t=5 minutes compared to t=0 minutes and is expressed as % of the decrease in the ADP control samples after correcting for changes in the unaggregated control samples. IC50s were derived by non-linear regression analysis.

A further test concerns the target T1, P2Y12 receptor (Homo sapiens, UniProt Q9H244).
T1 construct: endogenous in cells; host or cells: human platelets (outdated from blood banks or fresh), apyrase-washed, whole
The test is described as follows: platelet ADP receptor binding assay (ARB): inhibition of [3H]2-MeS-ADP binding to platelets. Particulars: [3H]2-MeS-ADP binding to apyrase-washed human platelets. In outline:
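Apyrase-washed human platelets (1×10^8 per well) were preincubated 5 min with serial compound dilutions in Hepes-Tyrode's/0.1% BSA/0.6% DMSO, then incubated 15 min at room temperature with 1 nM [3H]2-MeS-ADP. Filter-bound radioactivity gave specific binding (nonspecific: 10 μM 2-MeS-ADP), and IC50s came from non-linear regression.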

T1 sequence (Q9H244 whole entry): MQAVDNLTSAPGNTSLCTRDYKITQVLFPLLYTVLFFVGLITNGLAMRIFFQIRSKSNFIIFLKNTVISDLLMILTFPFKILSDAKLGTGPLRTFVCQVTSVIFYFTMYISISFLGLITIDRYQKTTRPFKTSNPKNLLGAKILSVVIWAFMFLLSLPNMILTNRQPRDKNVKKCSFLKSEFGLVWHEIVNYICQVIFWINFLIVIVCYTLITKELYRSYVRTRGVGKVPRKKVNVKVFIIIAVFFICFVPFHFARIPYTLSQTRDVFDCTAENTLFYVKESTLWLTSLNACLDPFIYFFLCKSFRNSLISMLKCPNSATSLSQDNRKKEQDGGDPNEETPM

As for `CNc1cc2[nH]c(=O)n(-c3ccc(C(=O)NC(c4cccc(Cl)c4)c4nnn[nH]4)cc3)c(=O)c2cc1F` (stereo not shown) [Compound 11, N-((3-chlorophenyl)(1H-tetrazol-5-yl)methyl)-4-(6-fluoro-7-(methylamino)-2,4-dioxo-1,2-dihydroquinazolin-3(4H)-yl)benzamide], the IC50 in test [1] is above 30000 nM; at P2Y12 receptor, 50 to 500 nM.
`CNc1cc2c(cc1F)C(=O)N(c1ccc(CNC(C(=O)O)c3ccc(Cl)s3)cc1)CO2` (stereo not shown) [Compound 105, 2-(5-chlorothiophen-2-yl)-2-(4-(6-fluoro-7-(methylamino)-4-oxo-2H-benzo[e][1,3]oxazin-3(4H)-yl)benzylamino)acetic acid]: the IC50 in test [1] was above 30000 nM; at P2Y12 receptor, 50 to 500 nM.
As to `CNc1cc2c(cc1F)C(=O)N(c1ccc(C(=O)NC(c3noc(=S)[nH]3)c3ccc(Cl)s3)cc1)CO2` (stereo not shown) [Compound 75, N-((5-chlorothiophen-2-yl)(5-thioxo-4,5-dihydro-1,2,4-oxadiazol-3-yl)methyl)-4-(6-fluoro-7-(methylamino)-4-oxo-2H-benzo[e][1,3]oxazin-3(4H)-yl)benzamide], the IC50 was 10000 to 30000 nM in test [1] and below 50 nM on P2Y12 receptor.
In the same order, the values of `CNc1cc2c(cc1F)C(=O)N(c1ccc(C(=O)NC(CC(=O)O)c3ccc(Cl)s3)cc1)CO2` (stereo not shown) [Compound 79, 3-(5-chlorothiophen-2-yl)-3-(4-(6-fluoro-7-(methylamino)-4-oxo-2H-benzo[e][1,3]oxazin-3(4H)-yl)benzamido)propanoic acid] are below 10000 nM and 50 to 500 nM.
Turning to `CNc1cc2c(cc1F)C(=O)N(c1ccc(C(=O)NC(c3nnn[nH]3)c3ccc(C)s3)cc1)CO2` (stereo not shown) [Compound 61, 4-(6-fluoro-7-(methylamino)-4-oxo-2H-benzo[e][1,3]oxazin-3(4H)-yl)-N-((5-methylthiophen-2-yl)(1H-tetrazol-5-yl)methyl)benzamide], the IC50 is 10000 to 30000 nM in test [1] and below 50 nM on P2Y12 receptor.
Turning to `CNc1cc2[nH]c(=O)n(-c3ccc(C(=O)N[C@H](c4noc(=O)[nH]4)c4ccc(Cl)s4)cc3)c(=O)c2cc1F` [Compound 46, (R)-N-((5-chlorothiophen-2-yl)(5-oxo-4,5-dihydro-1,2,4-oxadiazol-3-yl)methyl)-4-(6-fluoro-7-(methylamino)-2,4-dioxo-1,2-dihydroquinazolin-3(4H)-yl)benzamide], the values for the IC50 (in test [1]; at P2Y12 receptor) were 10000 to 30000 nM and 50 to 500 nM, respectively.
For `CNc1cc2c(cc1F)C(=O)N(c1ccc(C(=O)N(CC(=O)O)Cc3ccc(Cl)s3)cc1)CO2` [Compound 55], in that order: above 30000 nM and 50 to 500 nM.
For `CNc1cc2c(cc1F)C(=O)N(c1ccc(C(=O)NC(c3ccc(Cl)s3)c3nccs3)cc1)CO2` (stereo not shown) [Compound 82, N-((5-chlorothiophen-2-yl)(thiazol-2-yl)methyl)-4-(6-fluoro-7-(methylamino)-4-oxo-2H-benzo[e][1,3]oxazin-3(4H)-yl)benzamide], the IC50 in test [1] is above 30000 nM; at P2Y12 receptor, 50 to 500 nM.
As to `CNc1cc2c(cc1F)C(=O)N(c1ccc(C(=O)NC(C(N)=O)c3ccc(Cl)s3)cc1)CO2` (stereo not shown) [Compound 70], the figures for the IC50 (in test [1]; at P2Y12 receptor) were 10000 to 30000 nM and 50 to 500 nM, respectively.
As for `CNc1cc2c(cc1F)C(=O)N(c1ccc(C(=O)NC(C(=O)O)c3cccc(Cl)c3)cc1)CO2` (stereo not shown) [Compound 81, 2-(3-chlorophenyl)-2-(4-(6-fluoro-7-(methylamino)-4-oxo-2H-benzo[e][1,3]oxazin-3(4H)-yl)benzamido)acetic acid], the IC50 is above 30000 nM in test [1] and 50 to 500 nM at P2Y12 receptor.
As for `CNc1cc2[nH]c(=O)n(-c3ccc(C(=O)NC(C(=O)O)c4ccc(Cl)s4)c(C)c3)c(=O)c2cc1F` (stereo not shown) [Compound 41, 2-(5-chlorothiophen-2-yl)-2-(4-(6-fluoro-7-(methylamino)-2,4-dioxo-1,2-dihydroquinazolin-3(4H)-yl)-2-methylbenzamido)acetic acid], the IC50 in test [1] lay in the range of 10000 to 30000 nM; on P2Y12 receptor it was 50 to 500 nM.
For the compound `CNc1cc2c(cc1F)C(=O)N(c1ccc(C(=O)NC(c3cccc(Cl)c3)c3nnn[nH]3)cc1)CO2` (stereo not shown) [Compound 80, N-((3-chlorophenyl)(1H-tetrazol-5-yl)methyl)-4-(6-fluoro-7-(methylamino)-4-oxo-2H-benzo[e][1,3]oxazin-3(4H)-yl)benzamide], the half-maximal inhibitory concentration (IC50) is above 30000 nM in test [1] and 50 to 500 nM at P2Y12 receptor.
In the case of `CNc1cc2[nH]c(=O)n(-c3cc(C(=O)NC(C(=O)O)c4ccc(Cl)s4)cs3)c(=O)c2cc1F` (stereo not shown) [Compound 113, 2-(5-chlorothiophen-2-yl)-2-(5-(6-fluoro-7-(methylamino)-2,4-dioxo-1,2-dihydroquinazolin-3(4H)-yl)thiophene-3-carboxamido)acetic acid], the IC50 on P2Y12 receptor was above 500 nM.
At P2Y12 receptor, `O=C(NC(C(=O)O)c1ccc(Cl)s1)c1ccc(N2COc3cc(NCc4ccc(F)cc4)ccc3C2=O)cc1` (stereo not shown) [Compound 84, 2-(5-chlorothiophen-2-yl)-2-(4-(7-(4-fluorobenzylamino)-4-oxo-2H-benzo[e][1,3]oxazin-3(4H)-yl)benzamido)acetic acid] registered an IC50 above 500 nM.
On P2Y12 receptor, `COc1cccc2c1OCN(c1ccc(C(=O)NC(C(=O)O)c3ccc(Cl)s3)cc1)C2=O` (stereo not shown) [Compound 68, 2-(5-chlorothiophen-2-yl)-2-(4-(8-methoxy-4-oxo-2H-benzo[e][1,3]oxazin-3(4H)-yl)benzamido)acetic acid] returned an IC50 above 500 nM.
As for `CNc1cc2[nH]c(=O)n(-c3ccc(C(=O)NC(C(=O)O)c4ccc(Cl)s4)c(Cl)c3)c(=O)c2cc1F` (stereo not shown) [Compound 43, 2-(2-chloro-4-(6-fluoro-7-(methylamino)-2,4-dioxo-1,2-dihydroquinazolin-3(4H)-yl)benzamido)-2-(5-chlorothiophen-2-yl)acetic acid], the half-inhibitory concentration (IC50) on P2Y12 receptor was in the range of 50 to 500 nM.
The compound `CNc1cc2c(cc1F)C(=O)N(c1ccc(C(=O)N[C@@H](c3noc(=O)[nH]3)c3ccc(Cl)s3)cc1)CO2` [Compound 88, (S)-N-((5-chlorothiophen-2-yl)(5-oxo-4,5-dihydro-1,2,4-oxadiazol-3-yl)methyl)-4-(6-fluoro-7-(methylamino)-4-oxo-2H-benzo[e][1,3]oxazin-3(4H)-yl)benzamide] registered an IC50 on P2Y12 receptor below 50 nM.
As for `CNc1cc2[nH]c(=O)n(-c3ccc(C(=O)NC(CO)c4ccc(Cl)s4)cc3)c(=O)c2cc1F` (stereo not shown) [Compound 36], on P2Y12 receptor, the IC50 fell in the range of 50 to 500 nM.
On P2Y12 receptor, `CNc1cc2c(cc1F)C(=O)N(c1ccc(C(=O)NC(Cc3ccc(Cl)s3)C(=O)O)cc1)CO2` (stereo not shown) [Compound 57, 3-(5-chlorothiophen-2-yl)-2-(4-(6-fluoro-7-(methylamino)-4-oxo-2H-benzo[e][1,3]oxazin-3(4H)-yl)benzamido)propanoic acid] returned an IC50 of 50 to 500 nM.
In the case of `CCc1ccc2c(c1)CCN(c1ccc(C(=O)NC(C(=O)O)c3ccc(Cl)s3)cc1)C2=O` (stereo not shown) [Compound 119, 2-(5-chlorothiophen-2-yl)-2-(4-(6-ethyl-1-oxo-3,4-dihydroisoquinolin-2(1H)-yl)benzamido)acetic acid], the IC50 on P2Y12 receptor was above 500 nM.
The same measure, in the same setting: as for `CNc1cc2[nH]c(=O)n(-c3ccc(C(=O)NC(C(=O)O)c4ccc(Cl)s4)c(OC)c3)c(=O)c2cc1F` (stereo not shown) [Compound 42, 2-(5-chlorothiophen-2-yl)-2-(4-(6-fluoro-7-(methylamino)-2,4-dioxo-1,2-dihydroquinazolin-3(4H)-yl)-2-methoxybenzamido)acetic acid], the figure is above 500 nM; as for `CNc1cc2c(cc1F)C(=O)N(c1ccc(C(=O)N(CCC(=O)O)Cc3ccc(Cl)s3)cc1)CO2` [Compound 86, 3-(N-((5-chlorothiophen-2-yl)methyl)-4-(6-fluoro-7-(methylamino)-4-oxo-2H-benzo[e][1,3]oxazin-3(4H)-yl)benzamido)propanoic acid], above 500 nM.

One may read the IC50 as the point on the concentration scale where inhibition reaches its midpoint. A higher IC50 goes with a need for much substance.

The values are drawn from patent publication US7834023B2 (Portola Pharmaceuticals, Inc., priority 2006, dated 2010).
